From patent US20240018158A1, “BRM TARGETING COMPOUNDS AND ASSOCIATED METHODS OF USE” (Prelude Therapeutics Incorporated, priority 2020, published 2024) come the findings set out here.

The target of one test is SMARCA2 (Homo sapiens (Human), UniProt P51531). In words: SMARCA2 HiBiT degradation assay in HeLa cells. It counts as cell-based. The note with it: 18 hours; for DC50: read-out: DC50 (SM2-HeLa) SMARCA2 degradation potency; for Dmax: read-out: Dmax % (SM2-HeLa) maximum SMARCA2 degradation within the concentrations tested. As to the method: (§1) HiBiT peptide knock-in of SMARCA2 in LgBiT expressing HEK293T cells was performed by CRISPR-mediated tagging system as described Promega. The homozygous HiBiT knock-in on c-terminus SMARCA2 was confirmed by sanger sequence. SMARCA2-HiBiT knock-in Hela monoclonal cell (CS302366) and SMARCA4-HiBiT knock-in Hela monoclonal cell (CS3023226) were purchased from Promega. The heterozygous HiBiT-knock-in was confirmed by sanger sequence in both SMARCA2-HiBiT and SMARCA4-HiBiT monoclonal cells.
Sequence of SMARCA2 (P51531 whole entry): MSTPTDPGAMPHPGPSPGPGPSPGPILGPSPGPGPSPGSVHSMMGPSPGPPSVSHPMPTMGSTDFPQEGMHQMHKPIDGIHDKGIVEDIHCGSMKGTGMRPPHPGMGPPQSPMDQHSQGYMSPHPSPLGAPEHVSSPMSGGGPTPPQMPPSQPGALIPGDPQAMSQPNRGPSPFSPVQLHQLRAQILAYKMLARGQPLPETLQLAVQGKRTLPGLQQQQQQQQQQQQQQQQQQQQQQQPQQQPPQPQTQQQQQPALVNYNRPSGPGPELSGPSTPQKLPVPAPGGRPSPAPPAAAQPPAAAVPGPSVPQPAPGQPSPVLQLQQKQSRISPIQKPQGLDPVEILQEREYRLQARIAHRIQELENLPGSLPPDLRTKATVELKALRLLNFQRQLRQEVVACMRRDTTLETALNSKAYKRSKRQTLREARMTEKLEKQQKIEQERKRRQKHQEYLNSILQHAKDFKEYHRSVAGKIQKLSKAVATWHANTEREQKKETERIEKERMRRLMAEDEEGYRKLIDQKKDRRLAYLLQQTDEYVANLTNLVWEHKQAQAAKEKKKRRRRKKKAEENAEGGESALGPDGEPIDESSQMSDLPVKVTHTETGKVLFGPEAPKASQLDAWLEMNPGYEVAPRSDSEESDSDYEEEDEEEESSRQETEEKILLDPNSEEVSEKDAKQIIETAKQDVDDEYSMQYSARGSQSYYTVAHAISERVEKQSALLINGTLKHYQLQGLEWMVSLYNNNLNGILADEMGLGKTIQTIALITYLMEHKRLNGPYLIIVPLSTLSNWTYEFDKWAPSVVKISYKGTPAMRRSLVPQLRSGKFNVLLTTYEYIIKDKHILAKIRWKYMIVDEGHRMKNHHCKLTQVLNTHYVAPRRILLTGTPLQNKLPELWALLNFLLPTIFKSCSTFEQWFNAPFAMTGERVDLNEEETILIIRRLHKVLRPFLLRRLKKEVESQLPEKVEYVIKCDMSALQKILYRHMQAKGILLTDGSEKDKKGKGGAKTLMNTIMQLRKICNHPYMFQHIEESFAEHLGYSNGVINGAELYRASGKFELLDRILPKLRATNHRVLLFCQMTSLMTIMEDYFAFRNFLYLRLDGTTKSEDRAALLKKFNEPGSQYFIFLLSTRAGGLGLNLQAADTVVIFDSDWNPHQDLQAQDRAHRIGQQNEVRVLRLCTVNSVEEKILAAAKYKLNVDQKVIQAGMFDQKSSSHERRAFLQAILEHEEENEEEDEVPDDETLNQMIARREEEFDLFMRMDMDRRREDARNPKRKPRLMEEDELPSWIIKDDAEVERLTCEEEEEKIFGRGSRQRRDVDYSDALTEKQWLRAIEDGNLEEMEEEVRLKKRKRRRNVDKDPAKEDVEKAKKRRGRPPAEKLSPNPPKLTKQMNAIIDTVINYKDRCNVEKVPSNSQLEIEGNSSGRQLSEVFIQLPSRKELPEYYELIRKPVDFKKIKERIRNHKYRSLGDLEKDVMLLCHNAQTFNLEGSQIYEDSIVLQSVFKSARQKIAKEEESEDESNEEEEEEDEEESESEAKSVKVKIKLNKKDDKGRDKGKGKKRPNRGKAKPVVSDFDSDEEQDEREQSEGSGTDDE
(§2) Dispense 10 μL aliquot of prepared Hela-SMARCA2-HiBiT or Hela-SMARCA4-HiBiT cells (1:1 ratio of cells:Trypan Blue (#1450013, Bio-Rad)) onto cell counting slide (#145-0011, Bio-Rad) and obtain cell density and cell viability using cell counter (TC20, Bio-Rad). Remove appropriate volume of resuspended cells from culture flask to accommodate 2500 cells/well @ 20 μL/well. Transfer Hela-HiBiT cells to 50 ml conical (#430290, Corning). Spin down at 1000 rpm for 5 min using tabletop centrifuge (SPINCHRON 15, Beckman). Discard supernatant and resuspend cell pellet in modified EMEM (#30-2003, ATCC) cell culture media containing 10% FBS (F2422-500ML, Sigma), and 1×Penicillin/Streptomycin (200 g/1) (30-002-CI, Corning) to a cell density of 125,000 cells/ml. Dispense 20 μL of resuspended Hela-HiBit cells per well in 384-well TC treated plate (#12-565-343, Thermo Scientific) using standard cassette (#50950372, Thermo Scientific) on Multidrop Combi (#5840310, Thermo Scientific) inside laminar flow cabinet. Dispense test compounds onto plates using digital liquid dispenser (D300E, Tecan). Incubate plates in humidified tissue culture incubator @37° C. for 18 hours. Add 20 ul of prepared Nano-Glo® HiBiT Lytic detection buffer (N3050, Promega) to each well of 384-well plate using small tube cassette (#24073295, Thermo Scientific) on Multidrop Combi, incubate @ RT for 30-60 min. Read plates on microplate reader (Envision 2105, PerkinElmer) using 384 well Ultra-Sensitive luminescence mode. Raw data files and compound information reports are swept into centralized data lake and deconvoluted using automated scripts designed by TetraScience, Inc. Data analysis, curve-fitting and reporting done in Dotmatics Informatics Suite using Screening Ultra module.

A further test has as its target SMARCA4 (Homo sapiens (Human), UniProt P51532). Briefly: SMARCA4 HiBiT degradation assay in HeLa cells. Type of test: cell-based. The note with it: 18 hours; for DC50: read-out: DC50 (SM4-HeLa) SMARCA4 degradation potency; for Dmax: HeLa, read-out: Dmax % (SM4-HeLa) maximum SMARCA4 degradation within the concentrations tested. The protocol:
as §1, §2

Bounds are passed on as bounds.

Sequence of SMARCA4 (P51532 whole entry): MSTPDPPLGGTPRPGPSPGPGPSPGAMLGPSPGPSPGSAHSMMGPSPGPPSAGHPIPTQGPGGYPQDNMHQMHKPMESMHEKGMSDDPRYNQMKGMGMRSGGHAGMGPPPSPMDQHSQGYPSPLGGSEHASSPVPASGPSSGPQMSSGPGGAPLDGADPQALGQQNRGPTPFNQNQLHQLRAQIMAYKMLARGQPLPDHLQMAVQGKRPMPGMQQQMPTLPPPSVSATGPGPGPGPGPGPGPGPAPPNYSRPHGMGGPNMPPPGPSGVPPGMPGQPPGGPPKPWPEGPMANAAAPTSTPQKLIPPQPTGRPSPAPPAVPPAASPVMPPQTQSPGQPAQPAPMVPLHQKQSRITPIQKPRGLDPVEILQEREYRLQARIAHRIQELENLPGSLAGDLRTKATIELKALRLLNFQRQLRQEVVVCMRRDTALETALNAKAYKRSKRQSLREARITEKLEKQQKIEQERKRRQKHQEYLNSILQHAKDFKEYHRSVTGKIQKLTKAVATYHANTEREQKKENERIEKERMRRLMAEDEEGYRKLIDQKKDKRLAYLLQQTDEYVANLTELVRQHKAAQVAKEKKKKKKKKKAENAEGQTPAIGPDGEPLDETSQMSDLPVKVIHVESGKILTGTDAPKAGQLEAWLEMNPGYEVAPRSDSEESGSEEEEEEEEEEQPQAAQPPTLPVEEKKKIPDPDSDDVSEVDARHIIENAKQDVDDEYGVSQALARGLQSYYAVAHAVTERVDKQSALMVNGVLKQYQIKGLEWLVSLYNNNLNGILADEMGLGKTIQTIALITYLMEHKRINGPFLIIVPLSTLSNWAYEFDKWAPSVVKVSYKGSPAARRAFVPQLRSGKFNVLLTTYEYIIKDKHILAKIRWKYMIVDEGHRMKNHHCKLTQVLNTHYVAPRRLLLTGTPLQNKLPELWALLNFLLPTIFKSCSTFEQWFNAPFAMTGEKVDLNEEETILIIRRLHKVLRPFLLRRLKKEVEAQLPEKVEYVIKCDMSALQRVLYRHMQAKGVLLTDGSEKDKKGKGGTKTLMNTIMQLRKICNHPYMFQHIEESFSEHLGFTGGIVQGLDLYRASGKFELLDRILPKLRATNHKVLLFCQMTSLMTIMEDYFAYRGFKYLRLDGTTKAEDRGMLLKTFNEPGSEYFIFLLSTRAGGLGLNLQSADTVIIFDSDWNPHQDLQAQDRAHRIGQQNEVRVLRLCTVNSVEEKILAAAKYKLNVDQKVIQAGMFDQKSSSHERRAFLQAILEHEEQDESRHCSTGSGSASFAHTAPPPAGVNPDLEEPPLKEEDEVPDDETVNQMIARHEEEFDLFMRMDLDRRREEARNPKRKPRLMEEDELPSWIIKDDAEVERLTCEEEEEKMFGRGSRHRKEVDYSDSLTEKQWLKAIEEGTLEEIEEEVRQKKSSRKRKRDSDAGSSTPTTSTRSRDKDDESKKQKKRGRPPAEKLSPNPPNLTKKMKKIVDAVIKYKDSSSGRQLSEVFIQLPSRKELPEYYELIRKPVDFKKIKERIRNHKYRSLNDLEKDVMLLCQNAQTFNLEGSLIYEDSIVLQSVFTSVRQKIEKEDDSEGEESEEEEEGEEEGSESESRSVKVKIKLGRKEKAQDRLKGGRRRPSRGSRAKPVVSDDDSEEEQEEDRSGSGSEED

As to `Cc1ncsc1-c1ccc([C@H](C)NC(=O)[C@@H]2C[C@@H](O)CN2C(=O)C(c2cc(CCN(C)CCN3CCN4c5cc(-c6ccccc6O)nnc5NC[C@H]4C3)no2)C(C)C)cc1` (stereo partly drawn) [Example 34, (2S,4R)-4-hydroxy-1-(2-(3-(2-((2-((S)-2-(2-hydroxyphenyl)-5,6,6a,7,9,10-hexahydro-8H-pyrazino[1′,2′:4,5]pyrazino[2,3-c]pyridazin-8-yl)ethyl)(methyl)amino)ethyl)isoxazol-5-yl)-3-methylbutanoyl)N-((S)-1-(4-(4-methylthiazol-5-yl)phenyl)ethyl)pyrrolidine-2-carboxamide], the half-maximal degradation concentration (DC50) at SMARCA2 was under 100 nM; at SMARCA4, at least 10000 nM. In addition, the Dmax at SMARCA2 is over 75%; on SMARCA4 it was at most 50%.

For `Cc1ncsc1-c1ccc([C@H](C)NC(=O)[C@@H]2C[C@@H](O)CN2C(=O)[C@@H](c2cc(OCCN3CCC(CN4CCN5c6cc(-c7ccccc7O)nnc6NC[C@H]5C4)CC3)no2)C(C)C)cc1` [Example 38, (2S,4R)-4-hydroxy-1-((R)-2-(3-(2-(4-(((S)-2-(2-hydroxyphenyl)-5,6,6a,7,9,10-hexahydro-8H-pyrazino[1′,2′:4,5]pyrazino[2,3-c]pyridazin-8-yl)methyl)piperidin-1-yl)ethoxy)isoxazol-5-yl)-3-methylbutanoyl)-N-((S)-1-(4-(4-methylthiazol-5-yl)phenyl)ethyl)pyrrolidine-2-carboxamide], the half-maximal degradation concentration (DC50) at SMARCA2 and at SMARCA4 was under 100 nM in each case. For the same compound, the Dmax at SMARCA2 and on SMARCA4 was over 75% in each case.

As for `Cc1ncsc1-c1ccc([C@H](C)NC(=O)[C@@H]2C[C@@H](O)CN2C(=O)[C@@H](c2cc(OCCN(C)C3CCC(N4CCN5c6cc(-c7ccccc7O)nnc6NC[C@H]5C4)CC3)no2)C(C)C)cc1` (stereo partly drawn) [Example 43, (2S,4R)-4-hydroxy-1-((R)-2-(3-(2-((4-((S)-2-(2-hydroxyphenyl)-5,6,6a,7,9,10-hexahydro-8H-pyrazino[1′,2′:4,5]pyrazino[2,3-c]pyridazin-8-yl)cyclohexyl)(methyl)amino)ethoxy)isoxazol-5-yl)-3-methylbutanoyl)-N-((S)-1-(4-(4-methylthiazol-5-yl)phenyl)ethyl)pyrrolidine-2-carboxamide], at SMARCA2, the DC50 is under 100 nM and the Dmax is over 75%. Also, on SMARCA4, the DC50 was under 100 nM and the Dmax is over 75%.

On to `Cc1ncsc1-c1ccc([C@H](C)NC(=O)[C@@H]2C[C@@H](O)CN2C(=O)[C@@H](c2cc(CCCN3CCCC(N4CCN5c6cc(-c7ccccc7O)nnc6NC[C@H]5C4)C3)no2)C(C)C)cc1` (stereo partly drawn) [Example 45, (2S,4R)-4-hydroxy-1-((2R)-2-(3-(3-(3-((S)-2-(2-hydroxyphenyl)-5,6,6a,7,9,10-hexahydro-8H-pyrazino[1′,2′:4,5]pyrazino[2,3-c]pyridazin-8-yl)piperidin-1-yl)propyl)isoxazol-5-yl)-3-methylbutanoyl)-N-((S)-1-(4-(4-methylthiazol-5-yl)phenyl)ethyl)pyrrolidine-2-carboxamide], for which, on SMARCA2, the DC50 is under 100 nM and the Dmax was over 75%. Besides, on SMARCA4, the DC50 is under 100 nM and the Dmax lay in the range of 50 to 75%.

For `Cc1ncsc1-c1ccc([C@H](CO)NC(=O)[C@@H]2C[C@@H](O)CN2C(=O)C(c2cc(OCCN3CCC(CN4CCN5c6cc(-c7ccccc7O)nnc6NC[C@H]5C4)CC3)no2)C(C)C)cc1` (stereo partly drawn) [Example 46, (2S,4R)-4-hydroxy-N-((R)-2-hydroxy-1-(4-(4-methylthiazol-5-yl)phenyl)ethyl)-1-(2-(3-(2-(4-(((S)-2-(2-hydroxyphenyl)-5,6,6a,7,9,10-hexahydro-8H-pyrazino[1′,2′:4,5]pyrazino[2,3-c]pyridazin-8-yl)methyl)piperidin-1-yl)ethoxy)isoxazol-5-yl)-3-methylbutanoyl)pyrrolidine-2-carboxamide], at SMARCA2, the half-maximal degradation concentration (DC50) is under 100 nM and the Dmax was over 75%. Besides, on SMARCA4, the 50% degradation concentration (DC50) lay in the range of 100 to 1000 nM and the Dmax was over 75%.

Turning to `Cc1ncsc1-c1ccc([C@H](C)NC(=O)[C@@H]2C[C@@H](O)CN2C(=O)[C@@H](c2cc(OCCN3CC4CC(N5CCN6c7cc(-c8ccccc8O)nnc7NC[C@H]6C5)CC4C3)no2)C(C)C)cc1` (stereo partly drawn) [Example 47, (2S,4R)-4-hydroxy-1-((2R)-2-(3-(2-(5-((S)-2-(2-hydroxyphenyl)-5,6,6a,7,9,10-hexahydro-8H-pyrazino[1′,2′:4,5]pyrazino[2,3-c]pyridazin-8-yl)hexahydrocyclopenta[c]pyrrol-2(1H)-yl)ethoxy)isoxazol-5-yl)-3-methylbutanoyl)-N-((S)-1-(4-(4-methylthiazol-5-yl)phenyl)ethyl)pyrrolidine-2-carboxamide], the half-maximal degradation concentration (DC50) at SMARCA2 and at SMARCA4 was under 100 nM in each case. The Dmax on SMARCA2 and at SMARCA4 was over 75% in each case.

Take `Cc1ncsc1-c1ccc([C@H](C)NC(=O)[C@@H]2C[C@@H](O)CN2C(=O)[C@@H](c2cc(O[C@@H](C)CN3CCC(N4CCN5c6cc(-c7ccccc7O)nnc6NC[C@H]5C4)C3)no2)C(C)C)cc1` (stereo partly drawn) [Example 48, (2S,4R)-4-hydroxy-1-((2R)-2-(3-(((2S)-1-(3-((S)-2-(2-hydroxyphenyl)-5,6,6a,7,9,10-hexahydro-8H-pyrazino[1′,2′:4,5]pyrazino[2,3-c]pyridazin-8-yl)pyrrolidin-1-yl)propan-2-yl)oxy)isoxazol-5-yl)-3-methylbutanoyl)N-((S)-1-(4-(4-methylthiazol-5-yl)phenyl)ethyl)pyrrolidine-2-carboxamide]: on SMARCA2, the DC50 was under 100 nM and the Dmax was over 75%. Also, at SMARCA4, the “Dmax % (SM4-HeLa) maximum SMARCA4 degradation within the concentrations tested” value is “B (B = 50%< Dmax <=75%)” and the half-maximal degradation concentration (DC50) was under 100 nM.

As for `Cc1ncsc1-c1ccc([C@H](C)NC(=O)[C@@H]2C[C@@H](O)CN2C(=O)[C@@H](c2cc(O[C@@H](C)CN3CCC(N4CCN5c6cc(-c7ccccc7O)nnc6NC[C@H]5C4)C3)no2)C(C)C)cc1` (stereo partly drawn) [Example 49, (2S,4R)-4-hydroxy-1-((2R)-2-(3-(((2S)-1-(3-((S)-2-(2-hydroxyphenyl)-5,6,6a,7,9,10-hexahydro-8H-pyrazino[1′,2′:4,5]pyrazino[2,3-c]pyridazin-8-yl)pyrrolidin-1-yl)propan-2-yl)oxy)isoxazol-5-yl)-3-methylbutanoyl)-N-((S)-1-(4-(4-methylthiazol-5-yl)phenyl)ethyl)pyrrolidine-2-carboxamide], on SMARCA2, the “Dmax % (SM2-HeLa) maximum SMARCA2 degradation within the concentrations tested” value is reported as “A/A (A = Dmax >75%)” and the DC50 is under 100 nM. Further, at SMARCA4, the “Dmax % (SM4-HeLa) maximum SMARCA4 degradation within the concentrations tested” value is recorded as “A/A (A = Dmax >75%)” and the 50% degradation concentration (DC50) was under 100 nM.

In the case of `Cc1ncsc1-c1ccc([C@H](C)NC(=O)[C@@H]2C[C@@H](O)CN2C(=O)[C@@H](c2cc(OCCN3CCC(N4CCN5c6cc(-c7ccccc7O)nnc6NC[C@H]5C4)CC3C)no2)C(C)C)cc1` (stereo partly drawn) [Example 54, (2S,4R)-4-hydroxy-1-((2R)-2-(3-(2-(4-((S)-2-(2-hydroxyphenyl)-5,6,6a,7,9,10-hexahydro-8H-pyrazino[1′,2′:4,5]pyrazino[2,3-c]pyridazin-8-yl)-2-methylpiperidin-1-yl)ethoxy)isoxazol-5-yl)-3-methylbutanoyl)-N-((S)-1-(4-(4-methylthiazol-5-yl)phenyl)ethyl)pyrrolidine-2-carboxamide], at SMARCA2, the DC50 is under 100 nM and the Dmax is over 75%. Further, at SMARCA4, the half-maximal degradation concentration (DC50) is under 100 nM and the Dmax was over 75%.

Take `Cc1ncsc1-c1ccc([C@H](C)NC(=O)[C@@H]2C[C@@H](O)CN2C(=O)[C@@H](c2cc(OC(C)CN3CCC(N4CCN5c6cc(-c7ccccc7O)nnc6NC[C@H]5C4)CC3)no2)C(C)C)cc1` (stereo partly drawn) [Example 57, (2S,4R)-4-hydroxy-1-((2R)-2-(3-((1-(4-((S)-2-(2-hydroxyphenyl)-5,6,6a,7,9,10-hexahydro-8H-pyrazino[1′,2′:4,5]pyrazino[2,3-c]pyridazin-8-yl)piperidin-1-yl)propan-2-yl)oxy)isoxazol-5-yl)-3-methylbutanoyl)-N-((S)-1-(4-(4-methylthiazol-5-yl)phenyl)ethyl)pyrrolidine-2-carboxamide]: on SMARCA2, the DC50 is under 100 nM and the Dmax was over 75%. Besides, at SMARCA4, the 50% degradation concentration (DC50) was 100 to 1000 nM and the Dmax lay in the range of 50 to 75%.
